From patent US20240157020A1, “SUTURES” (The Queen's University of Belfast, priority 2021, published 2024) come the findings set out here.

In brackets after ≈: the same amount, converted by molar mass. Like-named read-outs stand apart in the source and are kept apart here. A value given as a limit tells only on which side of the number the result lay.

Type in all cases: cell-based
The subject of test [1] is S. epidermidis ATCC 35984. In words: MIC and MBC determination. The conditions noted are these: Staphylococcus epidermidis, ATCC35984. Here is the method: (§1) The antimicrobial activity of the THEDES was also assessed by determining the minimum inhibitory concentration (MIC) and the minimum bactericidal concentration (MBC) of MET, MA and the equimolar THEDES, respectively. Concentrations of 6 mg/mL MET, MA and MET-MA 1:1 were used to determine the MIC and MBC values against gram-positive bacteria E. faecalis, S. epidermidis and S. aureus, and gram-negative bacteria P. aeruginosa, E. coli and K. pneumoniae; results are shown in Table 4.

Test [2] concerns E. coli NCTC 8196. Kind of test: MIC and MBC determination. As to conditions: Escherichia coli, NCTC8196. Here is the method: as §1
Test [3] has as its system S. aureus ATCC 29213. Kind of test: MIC and MBC determination. Here is the method:
as §1

The test system of test [4] is S. aureus NCTC 12493 (MRSA). In words: MIC and MBC determination. Here is the method: as §1
Test [5] relates to E. faecalis ATCC 29212. Kind of test: MIC and MBC determination. The conditions noted are these: Enterococcus faecalis, ATCC29212. As to the method: as §1
Test [6] relates to S. aureus NCTC 10788. Kind of test: MIC and MBC determination. As to the method:
as §1

Test [7] deals with P. aeruginosa ATCC 27853. Kind of test: MIC and MBC determination. As to conditions: Pseudomonas aeruginosa, ATCC27853. As to the method: as §1
The subject of test [8] is P. aeruginosa NCTC 10783. In words: MIC and MBC determination. As to conditions: Pseudomonas aeruginosa, NCTC10783. Here is the method:
as §1

The subject of test [9] is K. pneumoniae ATCC 700603. Kind of test: MIC and MBC determination. The conditions noted are these: Klebsiella pneumoniae, ATCC700603. As to the method: as §1
Test [10] has as its system Pseudomonas aeruginosa. In words: Disc diffusion inhibition zone assay. As to conditions: gentamicin sulphate 10 mg/mL, THEDES neat, average n = 9 ± S.D. For orientation: Agar diffusion results depend on both activity and mobility in agar.
The test system of test [11] is Staphylococcus aureus NCTC 10788. Kind of test: Disc diffusion inhibition zone assay. As to conditions: gentamicin sulphate 10 mg/mL, THEDES neat, average n = 9 ± S.D. Here is the method:
(§2) The disc diffusion assays were carried out against Staphylococcus aureus (FIG. 7, Gram-positive, frequently found in the upper respiratory tract and on the skin) and Klebsiella pneumoniae (FIG. 8, Gram-negative, facultative anaerobic, typically residing in human intestines and faeces). In general, the calculated inhibition zones of gentamicin sulphate (10 mg/mL) and the neat THEDES were very similar, confirming the antimicrobial activity of the THEDES against both gram-positive and gram-negative bacteria (Table 3).

Test [12] has as its system Klebsiella pneumoniae ATCC 700603. Kind of test: Disc diffusion inhibition zone assay. The conditions noted are these: gentamicin sulphate 10 mg/mL, THEDES neat, average n = 9 ± S.D. Here is the method:
as §2

The mark [13] stands for this setting: Staphylococcus aureus, ATCC29213, S. aureus ATCC 29213.
Setting [14] is: Staphylococcus aureus, S. aureus NCTC 12493 (MRSA).
[15] abbreviates: Staphylococcus aureus, NCTC10788, S. aureus NCTC 10788.

For `Cc1ncc([N+](=O)[O-])n1CCO` [MET, metronidazole], the MBC – broadly, the smallest concentration meeting the test's criterion for killing – was 3000 µg/mL (≈ 17.5 mM) in test [1]; greater than 6000 µg/mL in test [2]; greater than 6000 µg/mL in test [3] (setting [13]); greater than 6000 µg/mL in [4] (setting [14]); greater than 6000 µg/mL in test [5]; greater than 6000 µg/mL in [6] (setting [15]). In addition, the MBC was greater than 6000 µg/mL in test [7], greater than 6000 µg/mL in [8] and 6000 µg/mL (≈ 35.1 mM) in [9]. The MIC (as a rule, the least concentration at which growth counts as inhibited) is 3000 µg/mL (≈ 17.5 mM) in [1]; greater than 6000 µg/mL in test [2]; 6000 µg/mL (≈ 35.1 mM) in test [3] (S. aureus ATCC 29213); 6000 µg/mL (≈ 35.1 mM) in test [3] (Staphylococcus aureus, ATCC29213, non-methicillin-resistant S. aureus strain, read-out: MIC); greater than 6000 µg/mL in test [4] (S. aureus NCTC 12493 (MRSA)); greater than 6000 µg/mL in [4] (Staphylococcus aureus, methicillin-resistant strain of S. aureus (MRSA), read-out: MIC). The MIC is greater than 6000 µg/mL in test [5]; 6000 µg/mL (≈ 35.1 mM) in test [6] (S. aureus NCTC 10788); 6000 µg/mL (≈ 35.1 mM) in test [6] (Staphylococcus aureus, NCTC10788, non-methicillin-resistant S. aureus strain, read-out: MIC); greater than 6000 µg/mL in test [7]; greater than 6000 µg/mL in [8]; 6000 µg/mL (≈ 35.1 mM) in [9].
With `O=C(O)/C=C\C(=O)O` [MA, maleic acid], the MBC in test [1], in test [2], in test [3] (setting [13]), in test [4] (setting [14]), in test [5] and in test [6] (setting [15]) was greater than 6000 µg/mL each time. Besides, the MBC in [7], in [8] and in [9] was greater than 6000 µg/mL each time. Further, the MIC in test [1] came to 6000 µg/mL (≈ 51.7 mM); in [2], 6000 µg/mL (≈ 51.7 mM); in test [3] (Staphylococcus aureus, ATCC29213, S. aureus ATCC 29213, read-out: MIC), 6000 µg/mL (≈ 51.7 mM); in test [4] (Staphylococcus aureus, S. aureus NCTC 12493 (MRSA), read-out: MIC), 6000 µg/mL (≈ 51.7 mM); in test [5], 6000 µg/mL (≈ 51.7 mM); in [6] (Staphylococcus aureus, NCTC10788, S. aureus NCTC 10788, read-out: MIC), 6000 µg/mL (≈ 51.7 mM). For the same compound, the MIC in test [7] was 6000 µg/mL (≈ 51.7 mM); in test [8], 6000 µg/mL (≈ 51.7 mM); in test [9], greater than 6000 µg/mL.
As for gentamicin sulphate, the “ZOI Diameter” value in test [10] came to 26.04 ± 1.75 mm; in test [11], 46.09 ± 1.69 mm; in test [12] it was 24.13 ± 1.09 mm.
